According to patent US11046649B2, “Compounds useful as inhibitors of indoleamine 2,3-dioxygenase and/or tryptophan dioxygenase” (Board of Regents, The University of Texas System, priority 2018, dated 2021):
pIC50: −log10 of the molar value.

Target: T1, IDO1 (Homo sapiens, UniProt P14902)
T1 construct: endogenous in cells; host or cells: HeLa cells (ATCC), IDO1 induced with 10 ng/mL IFNgamma
Assay: IDO1 cell-based assay
Conditions: HeLa cells, 10 ng/mL IFNgamma, 24 hours with test compound; N-Formyl Kynurenine and L-tryptophan quantified by RFMS

T1 sequence (P14902 whole entry): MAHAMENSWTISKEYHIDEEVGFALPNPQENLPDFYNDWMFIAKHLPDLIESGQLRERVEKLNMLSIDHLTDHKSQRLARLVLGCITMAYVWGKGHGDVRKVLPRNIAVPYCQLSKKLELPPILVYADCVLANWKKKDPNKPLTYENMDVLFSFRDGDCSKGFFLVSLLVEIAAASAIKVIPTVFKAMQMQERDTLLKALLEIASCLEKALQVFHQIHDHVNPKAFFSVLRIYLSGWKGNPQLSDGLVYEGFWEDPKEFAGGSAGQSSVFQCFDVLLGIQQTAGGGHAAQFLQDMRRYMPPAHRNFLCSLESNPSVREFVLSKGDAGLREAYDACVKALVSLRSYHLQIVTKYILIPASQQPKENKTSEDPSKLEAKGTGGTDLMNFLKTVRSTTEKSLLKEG

Compound | pIC50
2-((1R,3s,5S,6r)-3-((6- fluoroquinolin-4-yl)oxy)- bicyclo[3.1.0]hexan-6-yl)- N-(1-(trifluoromethyl)-1H- pyrazol-3-yl)propanamide [Example 102] | 8.43
2-((1R,3s,5S,6r)-3-((6- fluoroquinolin-4-yl)oxy)- bicyclo[3.1.0]hexan-6-yl)- N-(5-(4-methyl-4H-1,2,4- triazol-3-yl)pyridin-2-yl)- propanamide [Example 97] | 6.09
CC(C(=O)Nc1ccc(F)cn1)[C@H]1[C@@H]2C[C@@H](n3cnc4cc(F)c(F)cc43)C[C@@H]21 (stereo partly drawn) [Example 4, 2-((1R,3s,5S,6r)-3-(5,6-difluoro-1H-benzo[d]imidazol-1-yl)bicyclo[3.1.0]hexan-6-yl)-N-(5-fluoropyridin-2-yl)propanamide] | 8.29
COc1ccc(-c2ccc(NC(=O)[C@@H](C)[C@H]3[C@@H]4C[C@@H](n5cnc6cc(F)c(F)cc65)C[C@@H]43)cc2)cn1 [Example 6, (S)-2-((1R,3R,5S,6r)-3-(5,6-difluoro-1H-benzo[d]imidazol-1-yl)bicyclo[3.1.0]hexan-6-yl)-N-(4-(6-methoxypyridin-3-yl)phenyl)propanamide] | 6.48
CC(C(=O)NC12CC(CO)(C1)C2)[C@H]1[C@@H]2C[C@@H](Oc3ccnc4ccc(F)cc34)C[C@@H]21 (stereo partly drawn) [Example 7, 2-((1R,3s,5S,6r)-3-((6-fluoroquinolin-4-yl)oxy)bicyclo[3.1.0]hexan-6-yl)-N-(3-(hydroxy-methyl)bicyclo[1.1.1]pentan-1-yl)propanamide] | 6.33
CC(C(=O)NC12CC(CC#N)(C1)C2)[C@H]1[C@@H]2C[C@@H](Oc3ccnc4ccc(F)cc34)C[C@@H]21 (stereo partly drawn) [Example 8, N-(3-(cyanomethyl)bicyclo[1.1.1]pentan-1-yl)-2-((1R,3s,5S,6r)-3-((6-fluoroquinolin-4-yl)-oxy)bicyclo[3.1.0]hexan-6-yl)propanamide] | 7.29
COCC12CC(NC(=O)C(C)[C@H]3[C@@H]4C[C@@H](Oc5ccnc6ccc(F)cc56)C[C@@H]43)(C1)C2 (stereo partly drawn) [Example 9, 2-((1R,3s,5S,6r)-3-((6-fluoroquinolin-4-yl)oxy)bicyclo[3.1.0]hexan-6-yl)-N-(3-(methoxymethyl)bicyclo[1.1.1]pentan-1-yl)propanamide] | 7.26
CC(C(=O)NC12CC(N)(C1)C2)[C@H]1[C@@H]2C[C@@H](Oc3ccnc4ccc(F)cc34)C[C@@H]21 (stereo partly drawn) [Example 11, N-(3-aminobicyclo[1.1.1]pentan-1-yl)-2-((1R,3s,5S,6r)-3-((6-fluoroquinolin-4-yl)oxy)-bicyclo-[3.1.0]hexan-6-yl)propanamide] | 5.80
CCC(c1nc2cc(C(F)(F)F)ccc2[nH]1)[C@H]1[C@@H]2C[C@@H](Oc3ccnc4ccc(F)cc34)C[C@@H]21 (some centres unmarked) [Example 12] | 9.07
CC(C(=O)NC12CC(C(C)O)(C1)C2)[C@H]1[C@@H]2C[C@@H](n3cnc4cc(F)c(F)cc43)C[C@@H]21 (stereo partly drawn) [Example 13, 2-((1R,3s,5S,6r)-3-(5,6-difluoro-1H-benzo[d]imidazol-1-yl)bicyclo[3.1.0]hexan-6-yl)-N-(3-(1-hydroxyethyl)bicyclo[1.1.1]pentan-1-yl)propanamide] | 6.20
CC(C(=O)Nc1ccc(Cl)cc1)[C@H]1[C@@H]2C[C@@H](n3cnc4ccc(C#N)cc43)C[C@@H]21 (stereo partly drawn) [Example 16, N-(4-chlorophenyl)-2-((1R,3s,5S,6r)-3-(6-cyano-1H-benzo[d]imidazol-1-yl)-bicyclo[3.1.0]hexan-6-yl)-propanamide] | 8.36
CC(C(=O)Nc1ccc(C(F)(F)F)cn1)[C@H]1[C@@H]2C[C@@H](n3cnc4cc(F)c(F)cc43)C[C@@H]21 (stereo partly drawn) [Example 18, 2-((1R,3s,5S,6r)-3-(5,6-difluoro-1H-benzo[d]-imidazol-1-yl)bicyclo-[3.1.0]hexan-6-yl)-N-(5-(trifluoromethyl)pyridin-2-yl)propanamide] | 8.32
CC(C(=O)Nc1ccc(Cl)cn1)[C@H]1[C@@H]2C[C@@H](n3cnc4cc(F)c(F)cc43)C[C@@H]21 (stereo partly drawn) [Example 22, N-(5-chloropyridin-2-yl)-2-((1R,3s,5S,6r)-3-(5,6-difluoro-1H-benzo[d]-imidazol-1-yl)bicyclo-[3.1.0]hexan-6-yl)-propanamide] | 8.60
CC(C(=O)NC12CC(C#N)(C1)C2)[C@H]1[C@@H]2C[C@@H](n3cnc4cc(F)c(F)cc43)C[C@@H]21 (stereo partly drawn) [Example 23, N-(3-cyanobicyclo-[1.1.1]pentan-1-yl)-2-((1R,3s,5S,6r)-3-(5,6-difluoro-1H-benzo[d]-imidazol-1-yl)bicyclo-[3.1.0]hexan-6-yl)-propanamide] | 5.78
CC(C(=O)NC12CC(C(F)(F)F)(C1)C2)[C@H]1[C@@H]2C[C@@H](n3cnc4cc(F)c(F)cc43)C[C@@H]21 (stereo partly drawn) [Example 24, 2-((1R,3s,5S,6r)-3-(5,6-difluoro-1H-benzo[d]-imidazol-1-yl)bicyclo-[3.1.0]hexan-6-yl)-N-(3-(trifluoromethyl)bicyclo [1.1.1]pentan-1-yl)-propanamide] | 6.93
CC(C(=O)NC1CC(F)C1)[C@H]1[C@@H]2C[C@@H](n3cnc4cc(F)c(F)cc43)C[C@@H]21 (stereo partly drawn) [Example 25, 2-((1R,3s,5S,6r)-3-(5,6-difluoro-1H-benzo[d]-imidazol-1-yl)bicyclo-[3.1.0]hexan-6-yl)-N-(3-fluorocyclobutyl)-propanamide] | 5.47
COc1ccc(NC(=O)C(C)[C@H]2[C@@H]3C[C@@H](n4cnc5cc(F)c(F)cc54)C[C@@H]32)nc1 (stereo partly drawn) [Example 27, 2-((1R,3s,5S,6r)-3-(5,6-difluoro-1H-benzo[d]-imidazol-1-yl)bicyclo-[3.1.0]hexan-6-yl)-N-(5-methoxypyridin-2-yl)-propanamide] | 8.18
CC(C(=O)NC12CC(F)(C1)C2)[C@H]1[C@@H]2C[C@@H](n3cnc4cc(F)c(F)cc43)C[C@@H]21 (stereo partly drawn) [Example 28, 2-((1R,3s,5S,6r)-3-(5,6-difluoro-1H-benzo[d]-imidazol-1-yl)bicyclo-[3.1.0]hexan-6-yl)-N-(3-fluorobicyclo[1.1.1]pentan-1-yl)propanamide] | 5.60
Cc1ccc(NC(=O)C(C)[C@H]2[C@@H]3C[C@@H](n4cnc5cc(F)c(F)cc54)C[C@@H]32)nc1 (stereo partly drawn) [Example 29, 2-((1R,3s,5S,6r)-3-(5,6-difluoro-1H-benzo[d]-imidazol-1-yl)bicyclo-[3.1.0]hexan-6-yl)-N-(5-methylpyridin-2-yl)-propanamide] | 7.96
CC(C(=O)NC1CC(F)(F)C1)[C@H]1[C@@H]2C[C@@H](n3cnc4cc(F)c(F)cc43)C[C@@H]21 (stereo partly drawn) [Example 30, 2-((1R,3s,5S,6r)-3-(5,6-difluoro-1H-benzo[d]-imidazol-1-yl)bicyclo-[3.1.0]hexan-6-yl)-N-(3,3-difluorocyclobutyl)-propanamide] | 5.79
CC(C(=O)Nc1cnn(C)c1)[C@H]1[C@@H]2C[C@@H](n3cnc4cc(F)c(F)cc43)C[C@@H]21 (stereo partly drawn) [Example 31, 2-((1R,3s,5S,6r)-3-(5,6-difluoro-1H-benzo[d]-imidazol-1-yl)bicyclo-[3.1.0]hexan-6-yl)-N-(1-methyl-1H-pyrazol-4-yl)-propanamide] | 6.85
CC(C(=O)NC1CCC(F)(F)C1)[C@H]1[C@@H]2C[C@@H](n3cnc4cc(F)c(F)cc43)C[C@@H]21 (stereo partly drawn) [Example 32, 2-((1R,3s,5S,6r)-3-(5,6-difluoro-1H-benzo[d]-imidazol-1-yl)bicyclo-[3.1.0]hexan-6-yl)-N-(3,3-difluorocyclopentyl)-propanamide] | 6.54
CC(C(=O)Nc1ccn(C)n1)[C@H]1[C@@H]2C[C@@H](n3cnc4cc(F)c(F)cc43)C[C@@H]21 (stereo partly drawn) [Example 34, 2-((1R,3s,5S,6r)-3-(5,6-difluoro-1H-benzo[d]-imidazol-1-yl)bicyclo-[3.1.0]hexan-6-yl)-N-(1-methyl-1H-pyrazol-3-yl)-propanamide] | 6.75
O=C(N[C@H](C1CC1)[C@H]1[C@@H]2C[C@@H](Oc3ccnc4ccc(F)cc34)C[C@@H]21)c1ccc(Cl)cc1 [Example 38, 4-chloro-N-((R)-cyclo-propyl((1R,3s,5S,6r)-3-((6-fluoroquinolin-4-yl)oxy)-bicyclo[3.1.0]hexan-6-yl)-methyl)benzamide] | 8.86
CC(C(=O)NC12CC(c3ccc(F)cc3)(C1)C2)[C@H]1[C@@H]2C[C@@H](n3cnc4cc(F)c(F)cc43)C[C@@H]21 (stereo partly drawn) [Example 39, 2-((1R,3s,5S,6r)-3-(5,6-difluoro-1H-benzo[d]-imidazol-1-yl)bicyclo-[3.1.0]hexan-6-yl)-N-(3-(4-fluorophenyl)bicyclo-[1.1.1]pentan-1-yl)-propanamide] | 7.89
CC(C(=O)NC1CCC(F)(F)CC1)[C@H]1[C@@H]2C[C@@H](n3cnc4cc(F)c(F)cc43)C[C@@H]21 (stereo partly drawn) [Example 43, 2-((1R,3s,5S,6r)-3-(5,6-difluoro-1H-benzo[d]-imidazol-1-yl)bicyclo-[3.1.0]hexan-6-yl)-N-(4,4-difluorocyclohexyl)-propanamide] | 6.72
CC(C(=O)NCC(F)(F)F)[C@H]1[C@@H]2C[C@@H](n3cnc4cc(F)c(F)cc43)C[C@@H]21 (stereo partly drawn) [Example 44, 2-((1R,3s,5S,6r)-3-(5,6-difluoro-1H-benzo[d]-imidazol-1-yl)bicyclo-[3.1.0]hexan-6-yl)-N-(2,2,2-trifluoroethyl)-propanamide] | 5.17
CC(C(=O)NCCC(F)(F)F)[C@H]1[C@@H]2C[C@@H](n3cnc4cc(F)c(F)cc43)C[C@@H]21 (stereo partly drawn) [Example 45, 2-((1R,3s,5S,6r)-3-(5,6-difluoro-1H-benzo[d]-imidazol-1-yl)bicyclo-[3.1.0]hexan-6-yl)-N-(3,3,3-bifluoropropyl)-propanamide] | 6.18
Cc1nc(NC(=O)C(C)[C@H]2[C@@H]3C[C@@H](n4cnc5cc(F)c(F)cc54)C[C@@H]32)ccc1C#N (stereo partly drawn) [Example 46, (R)-N-(5-cyano-6-methyl-pyridin-2-yl)-2-((1R,3s,5S,6r)-3-(5,6-difluoro-1H-benzo[d]-imidazol-1-yl)bicyclo-[3.1.0]hexan-6-yl)-propanamide] | 7.38
